Consider one compound from PubChem BioAssay AID651709 (Sanford-Burnham Center for Chemical Genomics, 2012).

One may read the IC50 as the concentration needed to halve the response being measured.

The assay has as its target Probable nicotinate-nucleotide adenylyltransferase (Staphylococcus aureus (strain N315)) (UniProt P65502). As to the kind of experiment: inhibitors of S. aureus NadD, dose response, biochemical, colorimetric, set 2 (AID 651709). Conditions: purified S. aureus NadD, colorimetric enzyme assay.

Sequence of Probable nicotinate-nucleotide adenylyltransferase (Staphylococcus aureus (strain N315)) (P65502 whole entry, looked up): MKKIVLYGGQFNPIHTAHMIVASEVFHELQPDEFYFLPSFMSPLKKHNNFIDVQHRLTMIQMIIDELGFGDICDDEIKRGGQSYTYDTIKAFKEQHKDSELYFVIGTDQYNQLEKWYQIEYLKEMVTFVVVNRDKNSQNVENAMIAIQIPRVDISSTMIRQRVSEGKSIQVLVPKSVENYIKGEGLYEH

With `C[c-]1[c-](C)[c-](C)[c-](C)[c-]1C.[Fe].c1cc2nccc(N3CCCC3)[c-]2c1` (stereo unspecified), the IC50 was 50 µM.
